The NIST ThermoML archive (doi:10.1021/je034177v)

Assay: xn = mol fraction of the nth substance listed
Conditions: 101 kPa, Liquid; for speed of sound: Pulse-echo method; for mass density: Vibrating tube method

ClCCCCCCl [1,5-dichloropentane] + CCCCCCCCCCCC
Conditions | mass density [kg/m3] | speed of sound [m/s]
278.15 K, x1 = 0.05237 | 769.83 | 1353.9
278.15 K, x1 = 0.1014 | 780 | 1351.3
278.15 K, x1 = 0.2008 | 802.34 | 1347.1
278.15 K, x1 = 0.3039 | 827.99 | 1344.1
278.15 K, x1 = 0.3945 | 852.98 | 1342.4
278.15 K, x1 = 0.4983 | 884.91 | 1342.1
278.15 K, x1 = 0.6014 | 920.97 | 1343.6
278.15 K, x1 = 0.6987 | 959.17 | 1347.1
278.15 K, x1 = 0.7975 | 1003.24 | 1353.4
278.15 K, x1 = 0.9021 | 1056.96 | 1363.5
278.15 K, x1 = 0.9497 | 1084.25 | 1369.5
278.15 K, x1 = 1 | 1115.28 | 1376.6
283.15 K, x1 = 0.05237 | 766.19 | 1334.4
283.15 K, x1 = 0.1014 | 776.32 | 1331.9
283.15 K, x1 = 0.2008 | 798.55 | 1327.8
283.15 K, x1 = 0.3039 | 824.08 | 1324.9
283.15 K, x1 = 0.3945 | 848.97 | 1323.6
283.15 K, x1 = 0.4983 | 880.76 | 1323.4
283.15 K, x1 = 0.6014 | 916.68 | 1325.1
283.15 K, x1 = 0.6987 | 954.72 | 1328.9
283.15 K, x1 = 0.7975 | 998.63 | 1335.3
283.15 K, x1 = 0.9021 | 1052.15 | 1345.6
283.15 K, x1 = 0.9497 | 1079.35 | 1351.7
283.15 K, x1 = 1 | 1110.26 | 1358.9
288.15 K, x1 = 0.05237 | 762.54 | 1314.6
288.15 K, x1 = 0.1014 | 772.61 | 1312.2
288.15 K, x1 = 0.2008 | 794.74 | 1308.2
288.15 K, x1 = 0.3039 | 820.16 | 1305.7
288.15 K, x1 = 0.3945 | 844.93 | 1304.4
288.15 K, x1 = 0.4983 | 876.58 | 1304.5
288.15 K, x1 = 0.6014 | 912.36 | 1306.4
288.15 K, x1 = 0.6987 | 950.25 | 1310.3
288.15 K, x1 = 0.7975 | 993.99 | 1317
288.15 K, x1 = 0.9021 | 1047.3 | 1327.5
288.15 K, x1 = 0.9497 | 1074.4 | 1333.7
288.15 K, x1 = 1 | 1105.2 | 1341
293.15 K, x1 = 0.05237 | 758.89 | 1295.1
293.15 K, x1 = 0.1014 | 768.91 | 1292.8
293.15 K, x1 = 0.2008 | 790.94 | 1289
293.15 K, x1 = 0.3039 | 816.25 | 1286.6
293.15 K, x1 = 0.3945 | 840.9 | 1285.5
293.15 K, x1 = 0.4983 | 872.42 | 1285.7
293.15 K, x1 = 0.6014 | 908.04 | 1287.9
293.15 K, x1 = 0.6987 | 945.78 | 1292
293.15 K, x1 = 0.7975 | 989.35 | 1298.8
293.15 K, x1 = 0.9021 | 1042.45 | 1309.5
293.15 K, x1 = 0.9497 | 1069.46 | 1315.8
293.15 K, x1 = 1 | 1100.16 | 1323.2
298.15 K, x1 = 0.05237 | 755.23 | 1275.6
298.15 K, x1 = 0.1014 | 765.22 | 1273.5
298.15 K, x1 = 0.2008 | 787.14 | 1269.8
298.15 K, x1 = 0.3039 | 812.33 | 1267.5
298.15 K, x1 = 0.3945 | 836.86 | 1266.6
298.15 K, x1 = 0.4983 | 868.24 | 1267
298.15 K, x1 = 0.6014 | 903.71 | 1269.3
298.15 K, x1 = 0.6987 | 941.31 | 1273.7
298.15 K, x1 = 0.7975 | 984.72 | 1280.7
298.15 K, x1 = 0.9021 | 1037.61 | 1291.6
298.15 K, x1 = 0.9497 | 1064.51 | 1298
298.15 K, x1 = 1 | 1095.11 | 1305.4
303.15 K, x1 = 0.05237 | 751.58 | 1256.4
303.15 K, x1 = 0.1014 | 761.51 | 1254.2
303.15 K, x1 = 0.2008 | 783.32 | 1250.7
303.15 K, x1 = 0.3039 | 808.4 | 1248.6
303.15 K, x1 = 0.3945 | 832.82 | 1247.8
303.15 K, x1 = 0.4983 | 864.07 | 1248.4
303.15 K, x1 = 0.6014 | 899.38 | 1250.9
303.15 K, x1 = 0.6987 | 936.82 | 1255.4
303.15 K, x1 = 0.7975 | 980.06 | 1262.6
303.15 K, x1 = 0.9021 | 1032.76 | 1273.8
303.15 K, x1 = 0.9497 | 1059.56 | 1280.3
303.15 K, x1 = 1 | 1090.07 | 1287.9
308.15 K, x1 = 0.05237 | 747.91 | 1237.3
308.15 K, x1 = 0.1014 | 757.8 | 1235.2
308.15 K, x1 = 0.2008 | 779.49 | 1231.8
308.15 K, x1 = 0.3039 | 804.47 | 1229.8
308.15 K, x1 = 0.3945 | 828.76 | 1229.2
308.15 K, x1 = 0.4983 | 859.88 | 1230
308.15 K, x1 = 0.6014 | 895.05 | 1232.7
308.15 K, x1 = 0.6987 | 932.33 | 1237.4
308.15 K, x1 = 0.7975 | 975.41 | 1244.8
308.15 K, x1 = 0.9021 | 1027.91 | 1256.1
308.15 K, x1 = 0.9497 | 1054.61 | 1262.7
308.15 K, x1 = 1 | 1085.02 | 1270.3
313.15 K, x1 = 0.05237 | 744.24 | 1218.4
313.15 K, x1 = 0.1014 | 754.07 | 1216.4
313.15 K, x1 = 0.2008 | 775.66 | 1213.2
313.15 K, x1 = 0.3039 | 800.53 | 1211.4
313.15 K, x1 = 0.3945 | 824.71 | 1210.9
313.15 K, x1 = 0.4983 | 855.7 | 1211.8
313.15 K, x1 = 0.6014 | 890.7 | 1214.6
313.15 K, x1 = 0.6987 | 927.83 | 1219.6
313.15 K, x1 = 0.7975 | 970.74 | 1227
313.15 K, x1 = 0.9021 | 1023.05 | 1238.5
313.15 K, x1 = 0.9497 | 1049.66 | 1245.2
313.15 K, x1 = 1 | 1079.97 | 1253
318.15 K, x1 = 0.05237 | 740.56 | 1199.7
318.15 K, x1 = 0.1014 | 750.34 | 1197.7
318.15 K, x1 = 0.2008 | 771.82 | 1194.6
318.15 K, x1 = 0.3039 | 796.59 | 1192.9
318.15 K, x1 = 0.3945 | 820.64 | 1192.5
318.15 K, x1 = 0.4983 | 851.51 | 1193.6
318.15 K, x1 = 0.6014 | 886.36 | 1196.7
318.15 K, x1 = 0.6987 | 923.36 | 1201.7
318.15 K, x1 = 0.7975 | 966.1 | 1209.5
318.15 K, x1 = 0.9021 | 1018.21 | 1221.1
318.15 K, x1 = 0.9497 | 1044.74 | 1227.9
318.15 K, x1 = 1 | 1074.95 | 1235.8
323.15 K, x1 = 0.05237 | 736.88 | 1181
323.15 K, x1 = 0.1014 | 746.61 | 1179.3
323.15 K, x1 = 0.2008 | 767.98 | 1176.2
323.15 K, x1 = 0.3039 | 792.63 | 1174.7
323.15 K, x1 = 0.3945 | 816.57 | 1174.4
323.15 K, x1 = 0.4983 | 847.29 | 1175.6
323.15 K, x1 = 0.6014 | 882 | 1178.8
323.15 K, x1 = 0.6987 | 918.84 | 1184.1
323.15 K, x1 = 0.7975 | 961.42 | 1191.9
323.15 K, x1 = 0.9021 | 1013.35 | 1203.8
323.15 K, x1 = 0.9497 | 1039.77 | 1210.6
323.15 K, x1 = 1 | 1069.89 | 1218.7
328.15 K, x1 = 0.05237 | 733.17 | 1162.7
328.15 K, x1 = 0.1014 | 742.86 | 1160.8
328.15 K, x1 = 0.2008 | 764.14 | 1157.9
328.15 K, x1 = 0.3039 | 788.68 | 1156.5
328.15 K, x1 = 0.3945 | 812.52 | 1156.4
328.15 K, x1 = 0.4983 | 843.12 | 1157.7
328.15 K, x1 = 0.6014 | 877.69 | 1161.2
328.15 K, x1 = 0.6987 | 914.4 | 1166.5
328.15 K, x1 = 0.7975 | 956.8 | 1174.5
328.15 K, x1 = 0.9021 | 1008.57 | 1186.6
328.15 K, x1 = 0.9497 | 1034.9 | 1193.5
328.15 K, x1 = 1 | 1064.93 | 1201.6
